For nine molecules, EC50 results are on record in patent US8962846B2, “Melanocortin receptor antagonist compounds, process for preparing them and use thereof in human medicine and cosmetics” (Galderma Research & Development, priority 2008, dated 2015).

In general, EC50 refers to the concentration at which the effect is half-maximal.

One assay deals with T1, hMC4-R (Homo sapiens, UniProt P32245).
T1 construct: expressed in transfected cells; host or cells: HEK293
Kind of assay: Transactivation test: melanocortin receptors (CRE-Luc luciferase), hMC4-R. Format: cell-based. The settings on record: HEK293 transfected with pCRE-Luc and receptor; 10-point dose response from 10 μM; antagonist behaviour tested in presence of 1 nM NDP-MSH; 6 hours incubation. As for the experimental part:
(§1) The lines HEK293 are transfected with vectors pCRE-Luc and hMCl1R or hMCl4R. The cells are cultured at 37° C. and 5% CO2, in DMEM medium supplemented with 10% foetal calf serum.
(§2) In the presence of an activator (agonist), the melanocortin receptor will activate the cAMP pathway, which, via the vector CRE-Luc, will lead to the synthesis of luciferase. After addition of a lysis buffer containing a luminescent luciferase substrate, the luminescence proportional to the degree of activation or inhibition of receptor may be measured.
(§3) The products are dissolved at 10 mM in DMSO. They are tested as a response dose at 0.1% of DMSO final. The range comprising 10 points and a zero starts at 10 μM with four-fold dilutions. To test agonists, the products are tested alone. To determine the antagonist behaviour, the products of interest are tested in the presence of 1 nM NDP-MSH (reference agonist). The cells are inoculated at a rate of 5000 cells per well (384-well plate) in serum-free DMEM medium and incubated overnight at 37° C. and 5% CO2.
(§4) The products and the reference ligand (NDP-MSH) are added the following day and the plates are reincubated for 6 hours at 37° C. and 5% CO2. After adding the lysis buffer containing luciferin, the plates are read in a Top-Count machine. The results are normalized as percentage of activity using the 100% (cells+NDP-MSH at 10 nM) and 0% (cells alone) controls. An EC50 is calculated for each product using the XLFit software.

Another assay addresses T2, hMC1-R (Homo sapiens, UniProt Q01726).
T2 construct: expressed in transfected cells; host or cells: HEK293
Briefly: Transactivation test: melanocortin receptors (CRE-Luc luciferase), hMC1-R. It counts as cell-based. The settings on record: HEK293 transfected with pCRE-Luc and receptor; 10-point dose response from 10 μM; antagonist behaviour tested in presence of 1 nM NDP-MSH; 6 hours incubation. As for the experimental part:
as §1, §2, §3, §4

T2 sequence (Q01726 whole entry): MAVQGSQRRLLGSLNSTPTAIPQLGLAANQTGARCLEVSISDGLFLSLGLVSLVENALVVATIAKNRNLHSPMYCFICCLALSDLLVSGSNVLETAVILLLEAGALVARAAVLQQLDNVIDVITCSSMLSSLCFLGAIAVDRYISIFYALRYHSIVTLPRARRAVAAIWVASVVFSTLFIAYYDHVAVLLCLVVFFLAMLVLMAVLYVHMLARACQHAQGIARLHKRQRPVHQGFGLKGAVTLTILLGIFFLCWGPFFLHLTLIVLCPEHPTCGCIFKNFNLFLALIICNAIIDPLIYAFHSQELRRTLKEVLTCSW
T1 sequence (P32245 whole entry): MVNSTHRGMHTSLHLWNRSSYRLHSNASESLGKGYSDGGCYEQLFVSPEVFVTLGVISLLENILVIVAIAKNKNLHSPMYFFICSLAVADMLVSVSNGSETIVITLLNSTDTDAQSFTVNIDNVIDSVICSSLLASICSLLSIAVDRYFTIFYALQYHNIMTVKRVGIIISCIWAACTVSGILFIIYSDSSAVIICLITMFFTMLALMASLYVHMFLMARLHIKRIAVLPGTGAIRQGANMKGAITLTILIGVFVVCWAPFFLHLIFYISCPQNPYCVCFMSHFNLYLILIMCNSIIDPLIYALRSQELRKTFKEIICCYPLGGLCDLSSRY

Turning to `COc1ccc(CC(NC(=O)NCCc2c[nH]cn2)C(=O)N2CCC(C(=O)NC(C)(C)C)(C3CCCCC3)CC2)cc1` (centres unmarked) [Example 1, 4-Cyclohexyl-1-[2-{3-[2-(1H-imidazol-4-yl)ethyl]ureido}-3-(4-methoxyphenyl)propionyl]piperidine-4-tert-butylcarbamoyl], the EC50 at hMC4-R turned out to be 60 nM.

Turning to `CCCC(=O)C1(C2CCCCC2)CCN(C(=O)[C@@H](Cc2ccc(OC)cc2)NC(=O)NCCc2cn(C)cn2)CC1` [Example 2, 1-[(R)-2-(4-Butyryl-4-cyclohexylpiperidin-1-yl)-1-(4-methoxybenzyl)-2-oxoethyl]-3-[2-(1-methyl-1H-imidazol-4-yl)ethyl]urea], the concentration giving a half-maximal response (EC50) was 1000 nM on hMC1-R and 50 nM at hMC4-R.

Take `CCCC(=O)C1(C2CCCCC2)CCN(C(=O)[C@@H](Cc2ccc(OC)cc2)NC(=O)NCCc2c[nH]nn2)CC1` [Example 3, 1-[(R)-2-(4-Butyryl-4-cyclohexylpiperidin-1-yl)-1-(4-methoxybenzyl)-2-oxoethyl]-3-[2-(1H-[1,2,3]triazol-4-yl)ethyl]urea]: at hMC4-R, the concentration for a half-maximal effect (EC50) turned out to be 50 nM.

Regarding `CCOC(=O)C1(C2CCCCC2)CCN(C(=O)[C@@H](Cc2ccc(OC)cc2)NC(=O)NCCCc2cnc[nH]2)CC1` [Example 4, Ethyl 4-cyclohexyl-1-[(R)-2-{3-[3-(3H-imidazol-4-yl)propyl]-ureido}-3-(4-methoxyphenyl)propionyl]piperidine-4-carboxylate], the EC50 at hMC1-R turned out to be 500 nM; at hMC4-R, 20 nM.

On to `CCOC(=O)C1(C2CCCCC2)CCN(C(=O)[C@@H](Cc2ccc(Cl)c(Cl)c2)NC(=O)NCCc2c[nH]cn2)CC1` [Example 5, Ethyl 4-cyclohexyl-1-((R)-3-(3,4-dichlorophenyl)-2-{3-[2-(1H-imidazol-4-yl)ethyl]ureido}propionyl)piperidine-4-carboxylate], for which the concentration giving a half-maximal response (EC50) at hMC4-R came to 15 nM.

As to `CCOC(=O)C1(C2CCCCC2)CCN(C(=O)[C@@H](Cc2ccc(Cl)c(Cl)c2)NC(=O)NCCc2cncn2C)CC1` [Example 6, Ethyl 4-cyclohexyl-1-((R)-3-(3,4-dichlorophenyl)-2-{3-[2-(3-methyl-3H-imidazol-4-yl)ethyl]ureido}propionyl)piperidine-4-carboxylate], the EC50 at hMC4-R is 10 nM.

Regarding `CCOC(=O)C1(C2CCCCC2)CCN(C(=O)[C@@H](Cc2ccc(OC)cc2)NC(=S)NCCCc2c[nH]cn2)CC1` [Example 7, Ethyl 4-cyclohexyl-1-[(R)-2-{3-[3-(1H-imidazol-4-yl)propyl]-thioureido}-3-(4-methoxyphenyl)propionyl]piperidine-4-carboxylate], the EC50 was 1000 nM at hMC1-R and 50 nM on hMC4-R.

For the molecule `CCOC(=O)C1(C2CCCCC2)CCN(C(=O)[C@@H](Cc2ccc(OC)cc2)NC(=S)NCCc2cn(C)cn2)CC1` [Example 8, Ethyl 4-cyclohexyl-1-((R)-3-(4-methoxyphenyl)-2-{3-[2-(1-methyl-1H-imidazol-4-yl)ethyl]thioureido}propionyl)piperidine-4-carboxylate], the results for the EC50 at hMC1-R and at hMC4-R were 1000 nM and 50 nM, respectively.

`CCOC(=O)C1(C2CCCCC2)CCN(C(=O)[C@@H](Cc2ccc(Cl)cc2Cl)NC(=O)NCCc2c[nH]cn2)CC1` [Example 9, Ethyl 4-cyclohexyl-1-((R)-3-(2,4-dichlorophenyl)-2-{3-[2-(1H-imidazol-4-yl)ethy]ureido}propionyl)piperidine-4-carboxylate]: the EC50 at hMC1-R was determined as 1000 nM; on hMC4-R, 2 nM.
